Bounds are passed on as bounds.

For `CCOP(=S)(OCC)Oc1cnc2ccccc2n1`, the melting point (commonly the temperature, or range, at which the solid turns liquid) was found to be 31.5 °C. To `CC(=O)C(=O)c1cc(C(=O)C(C)=O)c([N+](=O)[O-])cc1[N+](=O)[O-]` belongs 119 °C. To `CCCCCCc1ccc(-c2ccccc2)cc1` belongs 30 °C. The compound `O=C1c2ccccc2C(=O)N1CC1CNCCO1` (stereo not drawn) registered a melting point of 138 to 143 °C. To `OC(c1ccc(-c2ccc(C(O)(C(F)(F)F)C(F)(F)F)cc2)cc1)(C(F)(F)F)C(F)(F)F` belongs 125 to 126 °C; to `N#CCS(=O)(=O)c1ccc(F)cc1`, 87 to 89 °C. `OCc1nc2ccccc2s1`: the melting point was determined as 98 °C. Regarding `O=C1c2ccc(O)c(O)c2C(=O)c2ccc(O)c(O)c21`, the melting point amounted to 340 °C. Next, `O=c1n(Cl)c(=O)n(Cl)c(=O)n1Cl`: 249 °C. For `CC(=O)CC(=O)c1c(C)c(C)c(C)c(C)c1C`, the melting point is 73.8 to 75.1 °C. To `CSc1ccc(S)cc1` belongs 13 °C; to `O=C(Nc1ccccc1)Nc1ccccc1`, 242 °C; to `CCCc1c(O)ccc2c(=O)cc(C(=O)O)oc12`, 264 to 267 °C. To `CC(=O)O[Si](C)(C)OC(C)=O` belongs -12.5 °C; to `CCOC(=O)CCC(C)C1CCC2C3C(=O)C(Br)C4CC(OC(C)=O)CCC4(C)C3CC(OC(C)=O)C12C` (stereo not drawn), 132 to 134 °C; to `CC(Br)C(Br)CBr` (stereo not drawn), -19 °C.

In turn, `N#CC1=C(N)OC2(C(=O)Nc3ccccc32)C2=C1CCCC2` (stereo not drawn) had a melting point of 231 °C. To `O=Cc1cc(F)c(O)cc1F` belongs 147 °C; to `CC(c1ccccc1)C(C)(C)O` (stereo not drawn), 46 °C; to `N#CC(=CNc1ccccn1)C(=O)c1ccccc1`, 153 to 154 °C. To `Cc1cc(C(=O)O)c(C)n1Cc1cccs1` belongs 184 to 187 °C; to `Cn1nnc2cc(CO)ccc21`, 94 to 96 °C. Next, `O=C(O)c1cc([N+](=O)[O-])c(Cl)c([N+](=O)[O-])c1Cl`: 210 to 215 °C. In turn, `FC1CCCCC1` registered a melting point of 13 °C. To `CCCCCCCCCCCCCCCC(=O)Oc1c[nH]c2ccc(Br)c(Cl)c12` belongs 53 to 57 °C; to `Cn1cnc2c(NCc3ccccc3)nc(NCCO)nc21`, 120 to 130 °C. Next, `CCOC(CN)OCC`: -78 °C. To `O=C1CCC(=O)N1CN1C(=O)C(=Cc2ccco2)SC1=S` belongs 166 °C; to `O=S1(=O)CCCCO1`, 13.5 °C; to `S=C=Nc1ccc(Cl)c(Cl)c1Cl`, 69.5 °C. `COc1cc(CCN)cc(OC)c1OC` registered a melting point of 35.5 °C. As to `N#CC(c1ccc(Cl)nn1)c1c(Cl)cccc1Cl` (stereo not drawn), the melting point is 124 to 131 °C.

`CSc1nc(N)c(C(N)=O)s1` yielded a melting point of 199 to 200 °C.

In turn, `CC(=O)Nc1ccccc1CCCCc1ccccc1NC(C)=O` registered a melting point of 235 to 237 °C.

Turning to `S=C=Nc1ccc2c(c1)OCO2`, the melting point fell in the range of 57 to 59 °C.

`CC(C)C(C)CCC(C)C1CCC2C3CC=C4CC(O)CCC4(C)C3CCC12C` (stereo not drawn) showed a melting point of 158 °C. The compound `O=C1c2ncccc2-c2cccnc21` gave a melting point of 229 °C.

As to `CCOC(=O)c1cnc2cc(C)nn2c1C`, the melting point fell in the range of 100 to 101 °C.

For the compound `CC(=O)OC1CC[C@H]2[C@@H]3CC[C@@H]4C(Br)C(=O)CC[C@]4(C)[C@H]3CC[C@]12C` (stereo partly drawn), the melting point amounted to 181 °C. To `Clc1c(Br)c(Br)c2c(c1Br)Oc1c(Br)c(Br)c(Cl)c(Br)c1O2` belongs 385 °C. Next, `CN(N)c1ccc(C(F)(F)F)cc1[N+](=O)[O-]`: 68 to 70 °C; `Cc1cc(C)c(N)c(I)c1`: 65 °C; `O=C1/C(=N/Nc2ccc(Cl)cc2)C(C(F)(F)F)=NN1c1ccccc1`: 180 °C. Next, `S=C=Nc1cccc2nsnc12`: 88 to 89 °C. On to `CCCCCCCCCCCCCCCCCCN=C=S`, for which the melting point lay within 29 to 33 °C.

Regarding `NC1CCC(CC2CCC(N)CC2)CC1` (stereo not drawn), the melting point amounted to 64.7 °C. The compound `COc1cc(Br)cc2cc(C(=O)O)c(=O)oc12` returned a melting point of 226 to 228 °C.

Consider `CSCC[C@@H](NC(=O)OC(C)(C)C)C(=O)O`, for which the melting point fell in the range of 47 to 50 °C. Next, `O=Cc1c(Br)sc2ccc(Cl)cc12`: 139 to 140 °C; `CC=Cc1cc(OC)c(OC)cc1OC`: 62.5 °C. To `C[Si](C)(C)C1c2ccccc2-c2ccccc21` belongs 96.5 °C; to `CCOC(=O)c1c(N)sc2c1CCN(Cc1ccccc1)C2`, 112 °C. Turning to `Clc1ccc(C2C3CCc4ccccc4C3=NN2c2ccc(Cl)cc2)cc1` (stereo not drawn), the melting point was in the range of 186 to 188 °C. The compound `N=CN` displayed a melting point of 81 °C.

As for `FC(F)C(F)(F)CBr`, the melting point is under 25 °C. `O=S1(=O)CC=C(Cl)C1` registered a melting point of 90 to 92 °C. Turning to `O=C(O)C=CC(=O)Nc1ccc(F)cc1F`, the melting point worked out at 191 °C. To `O=C(Nc1nc2ccccc2s1)C(F)(F)C(F)(F)C(F)(F)C(F)(F)C(F)(F)C(F)(F)C(F)(F)C(F)(F)F` belongs 168 to 170 °C. The compound `FC(F)(F)c1cc(Cl)ccc1I` came in with a melting point of 29 to 31 °C.

In turn, `Oc1ccc2c(c1)Cc1ccccc1-2` returned a melting point of 168 °C.

The compound `Nc1nc2ccccc2[nH]1` yielded a melting point of 230 °C.

With `CCNCC(=O)O`, the melting point was 182 to 186 °C.

Turning to `CN(C)c1ccc(C2C3=C(CC(C)(C)CC3=O)Nc3c2ccc2ccccc32)cc1` (stereo not drawn), the melting point was determined as 271 °C. Next, `CCOC(=O)c1c(NC(=O)CN2CCCCC2)sc2c1CCCC2`: 100 to 101 °C.

Consider `CC12CCC3C(CCC4=CC(=O)CCC43C)C1CCC2=O` (stereo not drawn), for which the melting point is 170 to 171 °C.

Compound `CCOc1n[nH]c(=O)c(Br)c1Br` gave a melting point of 206 °C.

Take `CCCCCC(C)Br` (stereo not drawn): the melting point was determined as 47 °C. The compound `Cc1ccc(CNC2=CC(=O)c3ccccc3C2=O)nc1` displayed a melting point of 134 to 136 °C.

Regarding `CC(O)c1cc(C(F)(F)F)cc(C(F)(F)F)c1` (stereo not drawn), the melting point is 72 °C. Next, `Cc1ccc(C)c(CNC2=CC(=O)c3ccccc3C2=O)c1`: 164 °C; `O=C1C=CC(=Nc2ccc(O)cc2)C=C1`: 160 °C.

With `COc1cc(CCN(Cc2cccc(O)c2)C(=O)C(F)(F)F)ccc1O`, the melting point turned out to be 51 °C. For the compound `O=S(=O)(Oc1ccccc1)c1ccccc1C=Cc1ccccc1S(=O)(=O)Oc1ccccc1`, the melting point came out at 180 °C. Next, `BrCc1cccc(-c2ccsc2)c1`: 70 °C; `Cc1ccc(C)c2ccccc12`: 7.6 °C.

`CCOC(=O)Cc1csc(=S)[nH]1` gave a melting point of 136 to 144 °C. In the case of `CC(O)CN(CC(C)O)C(=O)COC(=O)c1ccccc1` (stereo not drawn), the melting point was 106 °C.

The compound `O=S(=O)(Cl)c1ccc(-c2ccccc2)cc1` gave a melting point of 115 °C.

The compound `COc1ccccc1C1(C)CCc2oc3ccc(C)cc3c2-c2oc(C)cc21` (stereo not drawn) registered a melting point of 179 °C. Next, `CCC(C(=O)C=Cc1ccccc1)C(=O)OC1CC(C)CCC1C(C)C` (stereo not drawn): 135 °C.

In turn, `O=C(O)CCC(=O)c1ccc2c(c1)OCCO2` registered a melting point of 138 to 140 °C.

`C=C(C)c1ccc(C)cc1` registered a melting point of -20 °C. Next, `CNC(=O)ON=C1C(Cl)C2CC(C#N)C1C2` (stereo not drawn): 144 °C; `COc1cc(CNC(=O)c2[nH]c3ccccc3c2CCO)cc(OC)c1`: 185 to 187 °C; `CC1(C)CC(=O)C=C(C(=O)O)O1`: 167 to 171 °C. In turn, `CSc1ccc(Oc2ccc(C(F)(F)F)cc2[N+](=O)[O-])cc1` showed a melting point of 41 to 43 °C. Next, `CCOC(=O)c1c(SC)nn(S(=O)(=O)c2ccc(C)cc2)c1N`: 151 to 153 °C. To `CC(C)(C)OC(=O)N1CCN(c2ccc(CN)cc2)CC1` belongs 83 to 87 °C; to `O=C(O)c1cccnc1Oc1ccc2c(c1)OCO2`, 181 to 183 °C; to `COc1ccc(SCC(=O)O)cc1OC`, 102 °C. To `CSC(Nc1ccccc1)=C(C#N)C#N` belongs 80 °C; to `O=c1n2ccccc2nc2nc3ccccc3n12`, 338 to 340 °C; to `O=S1(=O)Cc2cccc3cccc(c23)C1`, 238 to 240 °C. In turn, `OCCc1cccc2ccccc12` returned a melting point of 62 °C. Next, `Cn1nc2ccccc2c1C(=O)Cl`: 89 to 90 °C; `COc1ccc(C2Nn3c(nnc3-c3cccnc3)S2)cc1` (stereo not drawn): 219 °C. Next, `N#Cc1cccc(S(=O)(=O)Cl)c1`: 50 °C; `Cc1cc(OC(=O)C(F)(F)F)c(C)cc1OC(=O)C(F)(F)F`: 89 °C; `Clc1cc(Cl)cc(C2(CC(Cl)(Cl)Cl)CO2)c1` (stereo not drawn): 42.8 °C. To `Clc1cccc2c(C#Cc3ccccc3)c3cccc(Cl)c3c(C#Cc3ccccc3)c12` belongs 167 to 170 °C; to `O=C(c1ccc2c3c(cccc13)CC2)C(O)c1ccccc1` (stereo not drawn), 138 °C. In the case of `O[C@@H]1CC2=C(CC=CC2)C[C@@H]1O`, the melting point was 139 to 140 °C. `N#C/C(=N/Nc1ccccc1[N+](=O)[O-])c1nc(-c2ccccc2)cs1` returned a melting point of 210 °C. With `Cc1ccc(-c2cc(NN=c3c(C)nc4ccccc4[nH]c3=O)[nH]n2)cc1`, the melting point is 168 °C. To `COC(=O)c1ccc(C(=O)OC)nc1` belongs 163 to 164 °C; to `Oc1cccc(N2CCOCC2)c1`, 136 to 138 °C; to `Cc1ccc(-c2nnc(-c3ccccc3)c3c(C)onc23)cc1`, 206 °C. Regarding `CCCCCCCCCCCCCC(=O)OC(=O)CCCCCCCCCCCCC`, the melting point was determined as 53.4 °C.

These data come from a melting point compilation (Tetko et al.).
